The values that follow come from ChEMBL document CHEMBL5537110, “SIRT1-dependent mitochondrial biogenesis supports therapeutic effects of 4-butyl-polyhydroxybenzophenone compounds against NAFLD” (Eur J Med Chem, 2023).

Each structure is given as a SMILES string. The source made the active and inactive calls. No cut-off for these calls is given here.

Assay [1] has as its system EA.hy 926. As to the kind of experiment: Cytoprotective activity against H2O2-induced toxicity in human EA.hy 926 cells assessed as protective rate pretreated with compound for 4 hrs followed by incubation with H2O2 for 2 hrs by absorbance based analysis. It is filed as functional, cell-based.
For assay [2], the system named is EA.hy 926. The experiment in a line: Cytoprotective activity against H2O2-induced toxicity in human EA.hy 926 cells assessed as protective rate at 10 uM pretreated with compound for 4 hrs followed by incubation with H2O2 for 2 hrs by absorbance based analysis. To be noted: time 6 hrs. It is filed as functional.
In assay [3] the target is T1, Peroxisome proliferator-activated receptor gamma coactivator 1-alpha (Homo sapiens) (UniProt Q9UBK2).
T1 sequence (whole entry): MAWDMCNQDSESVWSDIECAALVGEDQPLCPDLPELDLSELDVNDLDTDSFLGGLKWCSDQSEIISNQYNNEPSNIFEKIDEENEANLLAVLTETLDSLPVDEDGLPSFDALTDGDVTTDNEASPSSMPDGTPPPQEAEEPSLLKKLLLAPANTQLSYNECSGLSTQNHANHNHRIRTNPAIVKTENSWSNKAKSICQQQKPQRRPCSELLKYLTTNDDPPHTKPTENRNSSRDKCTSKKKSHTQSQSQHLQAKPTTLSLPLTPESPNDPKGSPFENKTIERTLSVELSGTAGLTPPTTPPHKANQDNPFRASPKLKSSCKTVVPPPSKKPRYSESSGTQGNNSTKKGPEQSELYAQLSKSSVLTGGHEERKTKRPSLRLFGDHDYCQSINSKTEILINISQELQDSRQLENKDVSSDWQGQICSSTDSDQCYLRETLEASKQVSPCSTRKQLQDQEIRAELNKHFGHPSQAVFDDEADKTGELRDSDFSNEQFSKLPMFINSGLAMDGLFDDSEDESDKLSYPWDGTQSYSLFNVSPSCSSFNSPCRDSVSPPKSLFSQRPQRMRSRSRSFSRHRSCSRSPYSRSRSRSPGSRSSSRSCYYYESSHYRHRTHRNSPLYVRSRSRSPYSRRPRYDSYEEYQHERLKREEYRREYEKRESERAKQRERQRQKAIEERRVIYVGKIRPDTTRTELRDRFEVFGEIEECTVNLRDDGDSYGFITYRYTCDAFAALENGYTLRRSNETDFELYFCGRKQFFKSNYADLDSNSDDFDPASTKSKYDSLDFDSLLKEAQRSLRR
The experiment in a line: Binding affinity to PGC1alpha (unknown origin) by surface plasmon resonance assay. As to conditions: filed as activator.

Assay [4] addresses T2, NAD-dependent protein deacetylase sirtuin-1 (Homo sapiens) (UniProt Q96EB6).
T2 sequence (whole entry): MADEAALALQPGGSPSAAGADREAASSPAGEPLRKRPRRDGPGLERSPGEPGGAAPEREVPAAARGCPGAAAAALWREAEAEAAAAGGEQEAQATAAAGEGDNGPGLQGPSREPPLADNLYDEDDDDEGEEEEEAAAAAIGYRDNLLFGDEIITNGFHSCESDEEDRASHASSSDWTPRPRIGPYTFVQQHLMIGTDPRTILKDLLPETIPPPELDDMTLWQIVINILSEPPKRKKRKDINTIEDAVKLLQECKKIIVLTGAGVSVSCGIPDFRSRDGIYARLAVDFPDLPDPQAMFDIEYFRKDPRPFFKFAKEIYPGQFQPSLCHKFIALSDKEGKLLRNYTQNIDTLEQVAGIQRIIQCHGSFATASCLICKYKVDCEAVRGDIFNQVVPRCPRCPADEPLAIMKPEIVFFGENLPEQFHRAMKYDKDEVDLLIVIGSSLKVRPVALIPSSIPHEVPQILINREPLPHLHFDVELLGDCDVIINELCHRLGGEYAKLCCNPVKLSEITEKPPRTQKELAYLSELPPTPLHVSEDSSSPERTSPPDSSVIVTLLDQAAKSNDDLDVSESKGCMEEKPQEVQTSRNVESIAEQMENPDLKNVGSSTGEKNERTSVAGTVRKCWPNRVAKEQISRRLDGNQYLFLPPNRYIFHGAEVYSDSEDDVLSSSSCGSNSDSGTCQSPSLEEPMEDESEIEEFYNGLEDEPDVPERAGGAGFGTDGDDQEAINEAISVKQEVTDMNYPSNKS
The experiment in a line: Binding affinity to SIRT1 (unknown origin) by surface plasmon resonance assay. To be noted: filed as activator. On the technique in general: SPR reads the build-up and loss of mass on a sensor chip optically.

Usually EC50 stands for the concentration giving half of the maximal effect. For `O=c1c(O)c(-c2ccc(O)c(O)c2)oc2cc(O)cc(O)c12` [QUERCETIN], in the assay on EA.hy 926 [1], the EC50 stood at 2.67 µM. Also, the Activity in the assay with EA.hy 926 [2] is given as 55.2%.

On to `CC(C)(C)c1ccc(C(=O)c2cc(O)ccc2O)cc1`, for which the Activity in the assay on EA.hy 926 [2] is recorded as -7%. Same read-out and setting: for `CC(C)Cc1ccc(C(=O)c2cc(O)c(Cl)cc2O)cc1` the value was -3.92%.

For the compound `CC(C)Cc1ccc(C(=O)c2cc(O)c(O)cc2F)cc1`, the outcome in assay [3] and in assay [4] was Active. Also, in the assay with EA.hy 926 [1], the EC50 is 0.0808 µM. Further, in the assay on EA.hy 926 [2], the Activity is reported as 93.75%. For `CCCCc1ccc(C(=O)c2cc(O)ccc2O)cc1`, the Activity with EA.hy 926 [2] is 39.03%. On the same count and under the same terms, under `CC(C)Cc1ccc(C(=O)c2c(O)cc(O)cc2Cl)cc1` stands -8.4%.

Consider `COc1cc(O)cc(Cl)c1C(=O)c1ccc(C(C)(C)C)cc1`, for which the Activity in the assay with EA.hy 926 [2] is given as -64%.

`COc1cc(O)cc(Cl)c1C(=O)c1ccc(CC(C)C)cc1`: the Activity in the assay on EA.hy 926 [2] came out at 2.99%.

Regarding `CCCCc1ccc(C(=O)c2c(Cl)cc(O)cc2OC)cc1`, the Activity in the assay with EA.hy 926 [2] is 11.76%. Take `Cc1c(O)ccc(C(=O)c2ccc(CC(C)C)cc2)c1O`: the Activity in the assay on EA.hy 926 [2] is reported as 17.37%. The same measure, in the same setting: for `CCCCc1ccc(C(=O)c2ccc(O)c(C)c2O)cc1` the value was 2.8%. As for `Cc1c(O)ccc(C(=O)c2ccc(C(C)(C)C)cc2)c1O`, in the assay on EA.hy 926 [2], the Activity is listed as -67.36%. The same measure, in the same setting: under `CCCCc1ccc(C(=O)c2c(O)cc(O)cc2O)cc1` stands 36.04%; under `CCCCc1ccc(C(=O)c2cc(O)c(Cl)cc2O)cc1`, 21.66%.

As to `CC(C)(C)c1ccc(C(=O)c2cc(O)c(O)cc2F)cc1`, the outcome in assay [3] and in assay [4] was Active. Moreover, in the assay with EA.hy 926 [1], the EC50 worked out at 0.104 µM. Also, in the assay on EA.hy 926 [2], the Activity was determined as 80.56%. As for `CC(C)Cc1ccc(C(=O)c2ccc(O)c(O)c2)cc1`, the outcome in assay [3] and in assay [4] was Active. Further, the half-maximal effective concentration (EC50) in the assay with EA.hy 926 [1] stood at 0.081 µM. The Activity in the assay with EA.hy 926 [2] is given as 93.75%. Turning to `CCCCc1ccc(C(=O)c2ccc(O)c(O)c2O)cc1`, the Activity in the assay on EA.hy 926 [2] amounted to 64.71%. Still for that read-out and setting: under `CC(C)(C)c1ccc(C(=O)c2c(O)cc(O)cc2Cl)cc1` stands -49%. For `CC(C)Cc1ccc(C(=O)c2c(O)cc(O)cc2O)cc1`, the Activity with EA.hy 926 [2] worked out at 21.63%. In the case of `CC(C)(C)c1ccc(C(=O)c2ccc(O)c(O)c2O)cc1`, in the assay with EA.hy 926 [2], the Activity was -6.9%. On the same count and under the same terms, under `CCCCc1ccc(C(=O)c2cc(O)c(O)cc2F)cc1` stands 58.82%.

On to `CCCCc1ccc(C(=O)c2ccc(O)c(O)c2)cc1`, for which the outcome in assay [3] and in assay [4] was Active. In the assay on EA.hy 926 [1], the EC50 is 0.0842 µM. Also, the Activity in the assay on EA.hy 926 [2] was 70.59%.

With `CC(C)Cc1ccc(C(=O)c2cc(O)ccc2O)cc1`, the Activity with EA.hy 926 [2] was 8.96%. Take `CC(C)(C)c1ccc(C(=O)c2c(O)cc(O)cc2O)cc1`: in the assay with EA.hy 926 [2], the Activity is listed as -64%. Same read-out and setting: for `CC(C)(C)c1ccc(C(=O)c2cc(O)c(Cl)cc2O)cc1` the value was -67%. As to `CC(C)Cc1ccc(C(=O)c2ccc(O)c(O)c2O)cc1`, the result in assay [3] and in assay [4] was Active. The EC50 in the assay on EA.hy 926 [1] is 0.118 µM. In addition, the Activity with EA.hy 926 [2] is reported as 93.75%. Turning to `CCCCc1ccc(C(=O)c2c(O)cc(O)cc2Cl)cc1`, the Activity with EA.hy 926 [2] turned out to be 38.47%.
